{"source": "patent US20260116921A1", "about": "“PEPTIDE INHIBITORS OF INTERLEUKIN-23 RECEPTOR AND THEIR USE TO TREAT INFLAMMATORY DISEASES” (priority 2018, published 2026)", "data": [{"target": "T1, IL-23R (Homo sapiens, UniProt Q5VWK5)", "T1 sequence (Q5VWK5 24-629)": "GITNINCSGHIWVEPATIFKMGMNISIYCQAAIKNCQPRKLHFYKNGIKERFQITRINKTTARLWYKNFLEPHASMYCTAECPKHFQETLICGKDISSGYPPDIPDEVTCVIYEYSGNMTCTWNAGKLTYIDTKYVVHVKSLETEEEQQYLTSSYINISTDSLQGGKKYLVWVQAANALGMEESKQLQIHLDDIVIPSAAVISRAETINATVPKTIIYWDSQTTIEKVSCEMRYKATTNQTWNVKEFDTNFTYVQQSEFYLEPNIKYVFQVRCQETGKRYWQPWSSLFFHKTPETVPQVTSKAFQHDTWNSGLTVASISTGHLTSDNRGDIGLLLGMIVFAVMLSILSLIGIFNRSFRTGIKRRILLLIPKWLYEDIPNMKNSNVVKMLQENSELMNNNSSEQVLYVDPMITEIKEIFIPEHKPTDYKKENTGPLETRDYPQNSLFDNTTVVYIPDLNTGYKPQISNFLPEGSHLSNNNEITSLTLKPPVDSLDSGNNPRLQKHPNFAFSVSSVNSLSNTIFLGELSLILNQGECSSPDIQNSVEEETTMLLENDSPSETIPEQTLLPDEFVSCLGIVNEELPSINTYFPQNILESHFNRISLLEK", "test": "DB cells IL23R pSTAT3 cell assay (pStat3 HTRF)", "format": "cell-based", "source_text": "Human ELISA indicates the IL23-IL23R competitive binding assay described below, Rat ELISA indicates the rat IL-23R competitive binding ELISA assay described below, and pStat3HTRF indicates the DB cells IL-23R pSTAT3 cell assay described below. The peptides depicted in Table E1 are cyclized via a disulfide bridge formed between two Pen residues in these peptides. The peptides depicted in Table E2 are cyclized via a thioether bond between the indicated amino acid residues. Table E2 provides an illustrative structure depicting thioether cyclization, which is indicated in the table by the term “cyclo,” with the cyclic region bracketed immediately following the term “cyclo.” For certain peptides, the residue Abu is present where indicated, whereas in other embodiments, e.g., those related to the non-cyclized form, the Abu may be referred to as a hSer(Cl) or homoSer residue.\nDB Cells IL23R pSTAT3 Cell Assay\nIL-23 plays a central role in supporting and maintaining Th17 differentiation in vivo. This process is thought to be mediated primarily through the Signal Transducer and Activator of Transcription 3 (STAT3), with phosphorylation of STAT3 (to yield pSTAT3) leading to upregulation of RORC and pro-inflammatory IL-17. This cell assay examines the levels of pSTAT3 in IL-23R-expressing DB cells when stimulated with IL-23 in the presence of test compounds. Serial dilutions of test peptides and IL-23 (Humanzyme #HZ-1261) at a final concentration of 0.5 nM, were added to each well in a 96 well tissue culture plate (Corning #CLS3894). DB cells (ATCC #CRL-2289), cultured in RPMI-1640 medium (Thermo Scientific #11875093) supplemented with 10% FBS, were added at 5×10E5 cells/well and incubated for 30 minutes at 37° C. in a 5% CO2 humidified incubator. Changes in phospho-STAT3 levels in the cell lysates were detected using the Cisbio HTRF pSTAT3 (Tyr705) Cellular Assay Kit (Cisbio #62AT3PEH), according to manufacturer's Two Plate Assay protocol.", "units": {"IC50": "nM"}, "values": [{"smiles": "CC(=O)NCCCC[C@H](NC(=O)[C@](C)(CC(C)C)NC(=O)[C@H](Cc1ccc2ccccc2c1)NC(=O)[C@H](Cc1ccc(OCCN)cc1)NC(=O)[C@H]1NC(=O)[C@H](CCC(N)=O)NC(=O)[C@H](Cc2c[nH]c3ccc(Cl)cc23)NC(=O)[C@H]([C@@H](C)O)NC(=O)[C@H](CC(N)=O)NC(=O)[C@@H](NC(C)=O)C(C)(C)SSC1(C)C)C(=O)N[C@@H](CC(N)=O)C(=O)N[C@@H](CC(N)=O)C(N)=O", "note": "[compound 1]", "IC50": "10 to 100"}, {"smiles": "CC(=O)NCCCC[C@H](NC(=O)[C@](C)(CC(C)C)NC(=O)[C@H](Cc1ccc2ccccc2c1)NC(=O)[C@H](Cc1ccc(OCCN)cc1)NC(=O)[C@H]1NC(=O)[C@H](CCC(N)=O)NC(=O)[C@H](Cc2c[nH]c3cc(F)ccc23)NC(=O)[C@H]([C@@H](C)O)NC(=O)[C@H](CC(N)=O)NC(=O)[C@@H](NC(C)=O)C(C)(C)SSC1(C)C)C(=O)N[C@@H](CC(N)=O)C(=O)N[C@@H](CC(N)=O)C(N)=O", "note": "[compound 3]", "IC50": "10 to 100"}, {"smiles": "COc1ccc2[nH]cc(C[C@@H]3NC(=O)[C@H]([C@@H](C)O)NC(=O)[C@H](CC(N)=O)NC(=O)[C@@H](NC(C)=O)C(C)(C)SSC(C)(C)[C@@H](C(=O)N[C@@H](Cc4ccc(OCCN)cc4)C(=O)N[C@@H](Cc4ccc5ccccc5c4)C(=O)N[C@@](C)(CC(C)C)C(=O)N[C@@H](CCCCNC(C)=O)C(=O)N[C@@H](CC(N)=O)C(=O)N[C@@H](CC(N)=O)C(N)=O)NC(=O)[C@H](CCC(N)=O)NC3=O)c2c1", "note": "[compound 9]", "IC50": "> 100"}, {"smiles": "CC(=O)NCCCC[C@H](NC(=O)[C@](C)(CC(C)C)NC(=O)[C@H](Cc1ccc2ccccc2c1)NC(=O)[C@H](Cc1ccc(OCCN)cc1)NC(=O)[C@H]1NC(=O)[C@H](CCC(N)=O)NC(=O)[C@H](Cc2c[nH]c3ccc(O)cc23)NC(=O)[C@H]([C@@H](C)O)NC(=O)[C@H](CC(N)=O)NC(=O)[C@@H](NC(C)=O)C(C)(C)SSC1(C)C)C(=O)N[C@@H](CC(N)=O)C(=O)N[C@@H](CC(N)=O)C(N)=O", "note": "[compound 10]", "IC50": "> 100"}, {"smiles": "CC(=O)NCCCC[C@H](NC(=O)[C@](C)(CC(C)C)NC(=O)[C@H](Cc1ccc2ccccc2c1)NC(=O)[C@H](Cc1ccc(OCCN)cc1)NC(=O)[C@H]1NC(=O)[C@H](CCC(N)=O)NC(=O)[C@H](Cc2c[nH]c3ccc(Br)cc23)NC(=O)[C@H]([C@@H](C)O)NC(=O)[C@H](CC(N)=O)NC(=O)[C@@H](NC(C)=O)C(C)(C)SSC1(C)C)C(=O)N[C@@H](CC(N)=O)C(=O)N[C@@H](CC(N)=O)C(N)=O", "note": "[compound 11]", "IC50": "> 100"}, {"smiles": "CC(=O)NCCCC[C@H](NC(=O)[C@](C)(CC(C)C)NC(=O)[C@H](Cc1c[nH]c2ccc(Cl)cc12)NC(=O)[C@H](Cc1ccc(OCCN)cc1)NC(=O)[C@H]1NC(=O)[C@H](CCC(N)=O)NC(=O)[C@H](Cc2c[nH]c3ccccc23)NC(=O)[C@H]([C@@H](C)O)NC(=O)[C@H](CC(N)=O)NC(=O)[C@@H](NC(C)=O)C(C)(C)SSC1(C)C)C(=O)N[C@@H](CC(N)=O)C(=O)N[C@@H](CC(N)=O)C(N)=O", "note": "[compound 12]", "IC50": "> 100"}, {"smiles": "COc1cccc2[nH]cc(C[C@H](NC(=O)[C@H](Cc3ccc(OCCN)cc3)NC(=O)[C@H]3NC(=O)[C@H](CCC(N)=O)NC(=O)[C@H](Cc4c[nH]c5ccccc45)NC(=O)[C@H]([C@@H](C)O)NC(=O)[C@H](CC(N)=O)NC(=O)[C@@H](NC(C)=O)C(C)(C)SSC3(C)C)C(=O)N[C@@](C)(CC(C)C)C(=O)N[C@@H](CCCCNC(C)=O)C(=O)N[C@@H](CC(N)=O)C(=O)N[C@@H](CC(N)=O)C(N)=O)c12", "note": "[compound 15]", "IC50": "> 100"}, {"smiles": "CC(=O)NCCCC[C@H](NC(=O)[C@](C)(CC(C)C)NC(=O)[C@H](Cc1c[nH]c2cc(C)ccc12)NC(=O)[C@H](Cc1ccc(OCCN)cc1)NC(=O)[C@H]1NC(=O)[C@H](CCC(N)=O)NC(=O)[C@H](Cc2c[nH]c3ccccc23)NC(=O)[C@H]([C@@H](C)O)NC(=O)[C@H](CC(N)=O)NC(=O)[C@@H](NC(C)=O)C(C)(C)SSC1(C)C)C(=O)N[C@@H](CC(N)=O)C(=O)N[C@@H](CC(N)=O)C(N)=O", "note": "[compound 16]", "IC50": "1 to 10"}, {"smiles": "CC(=O)NCCCC[C@H](NC(=O)[C@](C)(CC(C)C)NC(=O)[C@H](Cc1c[nH]c2c(C)cccc12)NC(=O)[C@H](Cc1ccc(OCCN)cc1)NC(=O)[C@H]1NC(=O)[C@H](CCC(N)=O)NC(=O)[C@H](Cc2c[nH]c3ccccc23)NC(=O)[C@H]([C@@H](C)O)NC(=O)[C@H](CC(N)=O)NC(=O)[C@@H](NC(C)=O)C(C)(C)SSC1(C)C)C(=O)N[C@@H](CC(N)=O)C(=O)N[C@@H](CC(N)=O)C(N)=O", "note": "[compound 17]", "IC50": "10 to 100"}, {"smiles": "CC(=O)NCCCC[C@H](NC(=O)[C@](C)(CC(C)C)NC(=O)[C@H](Cc1c[nH]c2ccc(F)cc12)NC(=O)[C@H](Cc1ccc(OCCN)cc1)NC(=O)[C@H]1NC(=O)[C@H](CCC(N)=O)NC(=O)[C@H](Cc2c[nH]c3ccccc23)NC(=O)[C@H]([C@@H](C)O)NC(=O)[C@H](CC(N)=O)NC(=O)[C@@H](NC(C)=O)C(C)(C)SSC1(C)C)C(=O)N[C@@H](CC(N)=O)C(=O)N[C@@H](CC(N)=O)C(N)=O", "note": "[compound 18]", "IC50": "10 to 100"}, {"smiles": "CC(=O)NCCCC[C@H](NC(=O)[C@](C)(CC(C)C)NC(=O)[C@H](Cc1c[nH]c2c(F)cccc12)NC(=O)[C@H](Cc1ccc(OCCN)cc1)NC(=O)[C@H]1NC(=O)[C@H](CCC(N)=O)NC(=O)[C@H](Cc2c[nH]c3ccccc23)NC(=O)[C@H]([C@@H](C)O)NC(=O)[C@H](CC(N)=O)NC(=O)[C@@H](NC(C)=O)C(C)(C)SSC1(C)C)C(=O)N[C@@H](CC(N)=O)C(=O)N[C@@H](CC(N)=O)C(N)=O", "note": "[compound 19]", "IC50": "10 to 100"}, {"smiles": "COc1ccc2[nH]cc(C[C@H](NC(=O)[C@H](Cc3ccc(OCCN)cc3)NC(=O)[C@H]3NC(=O)[C@H](CCC(N)=O)NC(=O)[C@H](Cc4c[nH]c5ccccc45)NC(=O)[C@H]([C@@H](C)O)NC(=O)[C@H](CC(N)=O)NC(=O)[C@@H](NC(C)=O)C(C)(C)SSC3(C)C)C(=O)N[C@@](C)(CC(C)C)C(=O)N[C@@H](CCCCNC(C)=O)C(=O)N[C@@H](CC(N)=O)C(=O)N[C@@H](CC(N)=O)C(N)=O)c2c1", "note": "[compound 20]", "IC50": "10 to 100"}, {"smiles": "CC(=O)NCCCC[C@H](NC(=O)[C@](C)(CC(C)C)NC(=O)[C@H](Cc1c[nH]c2ccc(O)cc12)NC(=O)[C@H](Cc1ccc(OCCN)cc1)NC(=O)[C@H]1NC(=O)[C@H](CCC(N)=O)NC(=O)[C@H](Cc2c[nH]c3ccccc23)NC(=O)[C@H]([C@@H](C)O)NC(=O)[C@H](CC(N)=O)NC(=O)[C@@H](NC(C)=O)C(C)(C)SSC1(C)C)C(=O)N[C@@H](CC(N)=O)C(=O)N[C@@H](CC(N)=O)C(N)=O", "note": "[compound 21]", "IC50": "> 100"}, {"smiles": "CC(=O)NCCCC[C@H](NC(=O)[C@](C)(CC(C)C)NC(=O)[C@H](Cc1c[nH]c2ccc(Br)cc12)NC(=O)[C@H](Cc1ccc(OCCN)cc1)NC(=O)[C@H]1NC(=O)[C@H](CCC(N)=O)NC(=O)[C@H](Cc2c[nH]c3ccccc23)NC(=O)[C@H]([C@@H](C)O)NC(=O)[C@H](CC(N)=O)NC(=O)[C@@H](NC(C)=O)C(C)(C)SSC1(C)C)C(=O)N[C@@H](CC(N)=O)C(=O)N[C@@H](CC(N)=O)C(N)=O", "note": "[compound 22]", "IC50": "1 to 10"}, {"smiles": "CC(=O)NCCCC[C@H](NC(=O)C1(NC(=O)[C@H](Cc2ccc3ccccc3c2)NC(=O)[C@H](Cc2ccc(OCCN)cc2)NC(=O)[C@@H]2CSCC[C@H](NC(C)=O)C(=O)N[C@@H](CCC(N)=O)C(=O)N[C@@H]([C@@H](C)O)C(=O)N[C@@H](Cc3c[nH]c4c(C)cccc34)C(=O)N[C@@H](CCC(N)=O)C(=O)N2)CCOCC1)C(=O)N[C@@H](CC(N)=O)C(=O)N[C@@H](CC(N)=O)C(N)=O", "note": "[compound 30]", "IC50": "1 to 10"}]}]}
